Source: patent US20220259202A1, “1-(4-(AMINOMETHYL)BENZYL)-2-BUTYL-2H-PYRAZOLO[3,4-C]QUINOLIN-4-AMINE DERIVATIVES AND RELATED COMPOUNDS AS TOLL-LIKE RECEPTOR (TLR) 7/8 AGONISTS, AS WELL AS ANTIBODY DRUG CONJUGATES THEREOF FOR USE IN CANCER THERAPY AND DIAGNOSIS” (SUTRO BIOPHARMA, INC., priority 2019, published 2022)

Target: T1, mouse TLR7 (Mus musculus, UniProt P58681)
T1 construct: host or cells: HEK293
T1 sequence (P58681 27-1050): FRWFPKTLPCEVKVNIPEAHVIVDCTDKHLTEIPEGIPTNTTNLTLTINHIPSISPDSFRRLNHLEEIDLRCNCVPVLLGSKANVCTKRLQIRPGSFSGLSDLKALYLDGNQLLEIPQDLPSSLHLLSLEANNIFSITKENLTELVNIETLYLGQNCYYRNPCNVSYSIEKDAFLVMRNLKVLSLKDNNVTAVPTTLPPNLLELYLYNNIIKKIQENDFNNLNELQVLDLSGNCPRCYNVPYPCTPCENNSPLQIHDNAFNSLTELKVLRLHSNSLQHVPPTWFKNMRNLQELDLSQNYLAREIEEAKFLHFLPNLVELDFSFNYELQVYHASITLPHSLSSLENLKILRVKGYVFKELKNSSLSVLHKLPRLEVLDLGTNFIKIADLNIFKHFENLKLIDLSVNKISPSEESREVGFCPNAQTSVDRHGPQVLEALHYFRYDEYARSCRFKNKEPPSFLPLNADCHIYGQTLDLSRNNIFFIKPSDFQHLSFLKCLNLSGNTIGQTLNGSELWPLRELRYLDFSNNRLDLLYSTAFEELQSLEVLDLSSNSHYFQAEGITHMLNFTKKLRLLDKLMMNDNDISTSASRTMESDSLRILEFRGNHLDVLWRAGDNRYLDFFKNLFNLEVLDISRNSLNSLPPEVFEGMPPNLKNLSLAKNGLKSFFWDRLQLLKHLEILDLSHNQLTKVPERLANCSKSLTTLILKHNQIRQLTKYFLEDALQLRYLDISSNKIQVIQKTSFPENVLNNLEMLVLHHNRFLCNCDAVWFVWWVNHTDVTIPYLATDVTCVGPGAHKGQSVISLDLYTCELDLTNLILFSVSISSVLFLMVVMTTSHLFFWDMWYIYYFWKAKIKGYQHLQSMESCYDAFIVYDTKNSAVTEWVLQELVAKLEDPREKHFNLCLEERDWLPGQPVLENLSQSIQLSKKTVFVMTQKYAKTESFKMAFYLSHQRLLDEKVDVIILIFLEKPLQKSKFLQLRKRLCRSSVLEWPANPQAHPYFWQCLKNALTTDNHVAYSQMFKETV
Assay: HEK293 SEAP reporter assay, mouse TLR7 (Biological Example 1)
Assay type: cell-based
Settings: HEK293-mouseTLR7 reporter cells, 4 hrs; read-out: mTLR7 EC50
Description: In this example, the activity of the TLR7 agonists to activate human TLR7, hTLR7 (or human TLR8, hTLR8, or mouse TLR7, mTLR7) pathway was evaluated on HEK293 reporter cells transfected with human TLR7 (or mouse TLR7 or human TLR8) and an inducible SEAP (secreted embryonic alkaline phosphatase) reporter gene. The SEAP reporter gene is placed under the control of the IFN-β minimal promoter fused to five NF-κB and AP-1-binding sites. Stimulation with a TLR7 agonist activates NF-KB and AP-1 which induces the production of SEAP. Levels of SEAP was determined with HEK-Blue Detection medium.
HEK293-humanTLR7, HEK293-mouseTLR7 and HEK293-humanTLR8 reporter cell lines were purchased from Invivogen and cell lines were maintained in manufacture recommended culture medium with required supplemental antibiotics. On the day of assay, the cells were harvested with Accutase and counted by the Vi-CELL Cell Viability Analyzers. Cells were re-suspended in HEK blue detection medium and a total of 10000 cells were seeded in each well of a 384-well flat bottom plate. Serial dilutions of TLR7 agonists free drugs (1:3 serial dilution starting from 5 μM) was added into treatment wells. Assay plates were cultured at 37° C. in a CO2 incubator for […]. HEK-Blue™ Detection medium changes to a purple/blue color in the presence of secreted SEAP, which can be detected by spectrophotometry at 620-655 nm. […]

CCCCn1nc2c(N)nc3ccccc3c2c1Cc1ccc(CN)cc1 [Compound 1, 1-(4-(aminomethyl)benzyl)-2-butyl-2H-pyrazolo[3,4-c]quinolin-4-amine]
EC50: 29.1 nM
